Laboratory results: PubChem BioAssay AID248 (DTP/NCI, 2004)
Values joined by “and” are separate entries in the source; they are usually repeats but may differ in a detail not shown here. Equal values may be shown once. Inconclusive results and toxic doses are left out.

System: L1210 leukemia ip in BDF1 mice, survival T/C
Assay: NCI In Vivo Anticancer Drug Screen. Data for tumor model L1210 Leukemia (intraperitoneal) in B6D2F1 (BDF1) mice
Conditions: endpoint: mean survival time, higher = longer survival
Summary of the method: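 Transplanted-tumor mice were given test agent; controls received vehicle only. Survival readings from the two groups were divided (treated over control).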

[1] = dose: 25.0 mg/kg/injection, schedule: Q01DX009 (ip), vehicle: Klucel (hydroxypropylcellulose) (HPC)
[2] = dose: 50.0 mg/kg/injection, schedule: Q01DX009 (ip), vehicle: Klucel (hydroxypropylcellulose) (HPC)
[3] = dose: 100.0 mg/kg/injection, schedule: Q01DX009 (ip), vehicle: Klucel (hydroxypropylcellulose) (HPC)
[4] = dose: 200.0 mg/kg/injection, schedule: Q01DX009 (ip), vehicle: Klucel (hydroxypropylcellulose) (HPC)
[5] = dose: 75.0 mg/kg/injection, schedule: Q01DX001 (ip), vehicle: saline
[6] = dose: 150.0 mg/kg/injection, schedule: Q01DX001 (ip), vehicle: saline
[7] = dose: 300.0 mg/kg/injection, schedule: Q01DX001 (ip), vehicle: saline
[8] = dose: 100.0 mg/kg/injection, schedule: Q04DX002 (ip), vehicle: Klucel (hydroxypropylcellulose) (HPC)
[9] = dose: 200.0 mg/kg/injection, schedule: Q04DX002 (ip), vehicle: Klucel (hydroxypropylcellulose) (HPC)
[10] = dose: 400.0 mg/kg/injection, schedule: Q04DX002 (ip), vehicle: Klucel (hydroxypropylcellulose) (HPC)

S=C(NCc1ccc(Cl)cc1Cl)Nc1ccccc1
T/C [1]: 101 % of control | T/C [2]: 98 % of control | T/C [3]: 103 % of control and 109 % of control | T/C [4]: 88 % of control

C/C=C/C(C#N)Nc1ccccc1C(N)=O (centres undefined)
T/C (dose: 12.5 mg/kg/injection, schedule: Q04DX003 (ip), vehicle: Klucel (hydroxypropylcellulose) (HPC)): 91 % of control | T/C [1]: 104 % of control | T/C (dose: 25.0 mg/kg/injection, schedule: Q04DX003 (ip), vehicle: Klucel (hydroxypropylcellulose) (HPC)): 96 % of control | T/C [2]: 103 % of control | T/C (dose: 50.0 mg/kg/injection, schedule: Q04DX003 (ip), vehicle: Klucel (hydroxypropylcellulose) (HPC)): 102 % of control | T/C [3]: 95 % of control | T/C (dose: 100.0 mg/kg/injection, schedule: Q04DX003 (ip), vehicle: Klucel (hydroxypropylcellulose) (HPC)): 94 % of control

O=C(CCl)Nc1cc2ccccc2c2ccccc12
T/C [5]: 88 % of control | T/C [6]: 91 % of control | T/C [7]: 96 % of control

CCCCCCCCC1NC1CCCCCCCCO (centres undefined)
T/C [8]: 103 % of control | T/C [9]: 103 % of control | T/C [10]: 100 % of control

O=C(CCCCC(=O)Nc1ccc(C2=NCCN2)cc1)Nc1ccc(C2=NCCN2)cc1
T/C (dose: 11.0 mg/kg/injection, schedule: Q01DX009 (ip), vehicle: saline): 123 % of control | T/C (dose: 75.0 mg/kg/injection, schedule: Q04DX003 (ip), vehicle: saline): 123 % of control | T/C (dose: 90.0 mg/kg/injection, schedule: Q01DX009 (ip), vehicle: saline): 256 % of control | T/C (dose: 150.0 mg/kg/injection, schedule: Q04DX003 (ip), vehicle: saline): 123 % of control | T/C (dose: 175.0 mg/kg/injection, schedule: Q01DX001 (ip), vehicle: saline): 108 % of control | T/C (dose: 175.0 mg/kg/injection, schedule: Q01DX009 (ip), vehicle: saline): 212 % of control | T/C (dose: 265.0 mg/kg/injection, schedule: Q01DX009 (ip), vehicle: saline): 214 % of control | T/C (dose: 266.0 mg/kg/injection, schedule: Q01DX001 (ip), vehicle: saline): 156 % of control | T/C (dose: 300.0 mg/kg/injection, schedule: Q04DX003 (ip), vehicle: saline): 154 % of control | T/C (dose: 400.0 mg/kg/injection, schedule: Q01DX001 (ip), vehicle: saline): 186 % of control | T/C (dose: 500.0 mg/kg/injection, schedule: Q01DX001 (ip), vehicle: carboxymethylcellulose (CMC)): 179 % of control | T/C (dose: 600.0 mg/kg/injection, schedule: Q01DX001 (ip), vehicle: saline): 214 % of control | T/C (dose: 600.0 mg/kg/injection, schedule: Q04DX003 (ip), vehicle: saline): 197 % of control | T/C (dose: 1000.0 mg/kg/injection, schedule: Q01DX001 (ip), vehicle: carboxymethylcellulose (CMC)): 273 % of control

Cc1ccc(-c2nc3ccccc3c(=O)o2)cc1
T/C (dose: 50.0 mg/kg/injection, schedule: Q01DX009 (ip), vehicle: gum acacia): 93 % of control and 100 % of control | T/C (dose: 100.0 mg/kg/injection, schedule: Q01DX009 (ip), vehicle: gum acacia): 93 % of control and 100 % of control | T/C (dose: 100.0 mg/kg/injection, schedule: Q04DX003 (ip), vehicle: gum acacia): 106 % of control | T/C (dose: 200.0 mg/kg/injection, schedule: Q04DX003 (ip), vehicle: gum acacia): 88 % of control

CC(=O)OC1CC2C(=O)CC1(C)C2(C)C (centres undefined)
T/C [5]: 102 % of control

O=C1C(=O)c2cc(Cl)ccc2-c2ccccc21
T/C (dose: 50.0 mg/kg/injection, schedule: Q01DX001 (ip), vehicle: carboxymethylcellulose (CMC)): 100 % of control | T/C (dose: 100.0 mg/kg/injection, schedule: Q01DX001 (ip), vehicle: carboxymethylcellulose (CMC)): 102 % of control | T/C (dose: 200.0 mg/kg/injection, schedule: Q01DX001 (ip), vehicle: carboxymethylcellulose (CMC)): 100 % of control | T/C (dose: 400.0 mg/kg/injection, schedule: Q01DX001 (ip), vehicle: carboxymethylcellulose (CMC)): 105 % of control

O=C(O)c1cc(-c2ccc3cc4c(cc3c2)OCO4)nc2ccccc12
T/C [5]: 97 % of control | T/C [6]: 101 % of control | T/C [7]: 93 % of control

CN(C)Cc1ccccc1COC(=O)c1ccccc1
T/C [8]: 119 % of control | T/C [9]: 105 % of control | T/C [10]: 97 % of control

COC12CC(COC(=O)c3cncc(Br)c3)CN(C)C1Cc1cn(C)c3cccc2c13 (centres undefined)
T/C [3]: 100 % of control | T/C [4]: 116 % of control | T/C (dose: 400.0 mg/kg/injection, schedule: Q01DX009 (ip), vehicle: Klucel (hydroxypropylcellulose) (HPC)): 113 % of control
